According to ChEMBL document CHEMBL4308841, “Synthesis, in vitro antiproliferative activity, and kinase inhibitory effects of pyrazole-containing diarylureas and diarylamides” (Eur J Med Chem, 2018):

How the values were obtained:
RXF 393 [1] = test: Growth inhibition of human RXF393 cells incubated for 48 hrs by sulforhodamine B assay; assay type: functional, cell-based; settings: RXF 393, 48 h
RXF 393 [2] = test: Growth inhibition of human RXF393 cells assessed as cell growth at 0.1 uM incubated for 48 hrs by sulforhodamine B assay relative to control; assay type: functional; settings: RXF 393, 48 h, read-out: Activity
BT-549 = test: Growth inhibition of human BT549 cells assessed as cell growth at 0.1 uM incubated for 48 hrs by sulforhodamine B assay relative to control; assay type: functional; settings: BT-549, 48 h, read-out: Activity
HCT-15 = test: Growth inhibition of human HCT15 cells assessed as cell growth at 0.01 uM incubated for 48 hrs by sulforhodamine B assay relative to control; assay type: functional; settings: HCT-15, 48 h, read-out: Activity
Hs-578T [3] = test: Growth inhibition of human Hs578T cells assessed as cell growth at 100 uM incubated for 48 hrs by sulforhodamine B assay relative to control; assay type: functional; settings: read-out: Activity
A498 = test: Growth inhibition of human A498 cells incubated for 48 hrs by sulforhodamine B assay; assay type: functional, cell-based; settings: A498, 48 h
A549 = test: Growth inhibition of human A549/ATCC cells incubated for 48 hrs by sulforhodamine B assay; assay type: functional, cell-based; settings: A549, 48 h
NCI-H522 [4] = test: Growth inhibition of human NCI-H522 cells assessed as cell growth at 100 uM incubated for 48 hrs by sulforhodamine B assay relative to control; assay type: functional; settings: NCI-H522, 48 h, read-out: Activity
Hs-578T [5] = test: Growth inhibition of human Hs578T cells assessed as cell growth at 0.01 uM incubated for 48 hrs by sulforhodamine B assay relative to control; assay type: functional; settings: read-out: Activity
DU-145 = test: Growth inhibition of human DU145 cells assessed as cell growth at 1 uM incubated for 48 hrs by sulforhodamine B assay relative to control; assay type: functional; settings: DU-145, 48 h, read-out: Activity
NCI-H23 = test: Growth inhibition of human NCI-H23 cells assessed as cell growth at 0.1 uM incubated for 48 hrs by sulforhodamine B assay relative to control; assay type: functional; settings: NCI-H23, 48 h, read-out: Activity
RPMI-8226 = test: Growth inhibition of human RPMI8226 cells assessed as cell growth at 100 uM incubated for 48 hrs by sulforhodamine B assay relative to control; assay type: functional; settings: RPMI-8226, 48 h, read-out: Activity
HL-60(TB) = test: Growth inhibition of human HL-60(TB) cells assessed as cell growth at 0.1 uM incubated for 48 hrs by sulforhodamine B assay relative to control; assay type: functional; settings: HL-60, 48 h, read-out: Activity
SK-OV-3 [6] = test: Growth inhibition of human SKOV3 cells assessed as cell growth at 0.01 uM incubated for 48 hrs by sulforhodamine B assay relative to control; assay type: functional; settings: SK-OV-3, 48 h, read-out: Activity
786-0 [7] = test: Growth inhibition of human 786-0 cells assessed as cell growth at 1 uM incubated for 48 hrs by sulforhodamine B assay relative to control; assay type: functional; settings: 786-0, 48 h, read-out: Activity
U-251 = test: Growth inhibition of human U251 cells incubated for 48 hrs by sulforhodamine B assay; assay type: functional, cell-based; settings: U-251, 48 h
RXF 393 [8] = test: Growth inhibition of human RXF393 cells assessed as cell growth at 0.01 uM incubated for 48 hrs by sulforhodamine B assay relative to control; assay type: functional; settings: RXF 393, 48 h, read-out: Activity
NCI-H522 [9] = test: Growth inhibition of human NCI-H522 cells assessed as cell growth at 0.01 uM incubated for 48 hrs by sulforhodamine B assay relative to control; assay type: functional; settings: NCI-H522, 48 h, read-out: Activity
NCI-H460 = test: Growth inhibition of human NCI-H460 cells incubated for 48 hrs by sulforhodamine B assay; assay type: functional, cell-based; settings: NCI-H460, 48 h
SW-620 = test: Growth inhibition of human SW620 cells assessed as cell growth at 100 uM incubated for 48 hrs by sulforhodamine B assay relative to control; assay type: functional; settings: SW-620, 48 h, read-out: Activity
UO-31 = test: Growth inhibition of human UO31 cells incubated for 48 hrs by sulforhodamine B assay; assay type: functional, cell-based; settings: UO-31, 48 h
786-0 [10] = test: Growth inhibition of human 786-0 cells incubated for 48 hrs by sulforhodamine B assay; assay type: functional, cell-based; settings: 786-0, 48 h
SF-539 = test: Growth inhibition of human SF539 cells assessed as cell growth at 0.1 uM incubated for 48 hrs by sulforhodamine B assay relative to control; assay type: functional; settings: SF-539, 48 h, read-out: Activity
ACHN = test: Growth inhibition of human ACHN cells assessed as cell growth at 0.1 uM incubated for 48 hrs by sulforhodamine B assay relative to control; assay type: functional; settings: read-out: Activity
COLO 205 = test: Growth inhibition of human COLO205 cells assessed as cell growth at 0.01 uM incubated for 48 hrs by sulforhodamine B assay relative to control; assay type: functional; settings: COLO 205, 48 h, read-out: Activity
SK-OV-3 [11] = test: Growth inhibition of human SKOV3 cells assessed as cell growth at 1 uM incubated for 48 hrs by sulforhodamine B assay relative to control; assay type: functional; settings: SK-OV-3, 48 h, read-out: Activity
SNB-75 = test: Growth inhibition of human SNB75 cells incubated for 48 hrs by sulforhodamine B assay; assay type: functional, cell-based; settings: SNB-75, 48 h
SK-MEL-2 = test: Growth inhibition of human SK-MEL-2 cells assessed as cell growth at 0.01 uM incubated for 48 hrs by sulforhodamine B assay relative to control; assay type: functional; settings: SK-MEL-2, 48 h, read-out: Activity
[12] = read-out: LC50 (the source's name)
[13] = read-out: pLC50 (the source's name) (converted)

For `O=C(Nc1cccc(-n2cc(-c3ccncc3)c(-c3cc(O)cc(Cl)c3)n2)c1)c1ccc(N2CCOCC2)c(C(F)(F)F)c1`, the LC50 (RXF 393 [1]) was over 100 µM, the GI50 (RXF 393 [1]; read-out: GI50) was 0.303 µM and the TGI (RXF 393 [1]; read-out: TGI) was 19 µM. The GI50 (RXF 393 [1]; read-out: pGI50 (converted)) was 0.302 µM, the TGI (RXF 393 [1]; read-out: pTGI (converted)) was 1.91 µM and the growth at 0.1 µM (RXF 393 [2]) was 85%. It also gave a growth at 0.1 µM (BT-549) of 97%, a growth at 0.01 µM (HCT-15) of 91% and a growth at 100 µM (Hs-578T [3]) of 30%. The GI50 (A498; read-out: GI50) was 1.94 µM, the CC50 (A498; [12]) was over 100 µM and the TGI (A498; read-out: TGI) was 73.2 µM. The GI50 (A498; read-out: pGI50 (converted)) was 19.5 µM, the CC50 (A498; [13]) was over 100 µM and the TGI (A498; read-out: pTGI (converted)) was 72.4 µM. For the same molecule, the IC50 (A549) was 1.64 µM, the GI50 (A549; read-out: GI50) was 1.54 µM and the CC50 (A549; [12]) was over 100 µM. It also gave a TGI (A549; read-out: TGI) of 18 µM, a GI50 (A549; read-out: pGI50 (converted)) of 1.66 µM and a CC50 (A549; [13]) of over 100 µM. It also gave a TGI (A549; read-out: pTGI (converted)) of 18.2 µM, a growth at 100 µM (NCI-H522 [4]) of -20% and a growth at 0.01 µM (Hs-578T [5]) of 96%. The growth at 1 µM (DU-145) was 92%, the growth at 0.1 µM (NCI-H23) was 104% and the growth at 100 µM (RPMI-8226) was -32%. For the same molecule, the growth at 0.1 µM (HL-60(TB)) was 114%, the growth at 0.01 µM (SK-OV-3 [6]) was 102% and the growth at 1 µM (786-0 [7]) was 77%. It also gave an IC50 (U-251) of 1.4 µM, a GI50 (U-251; read-out: GI50) of 1.43 µM and a CC50 (U-251; [12]) of 44 µM. The TGI (U-251; read-out: TGI) was 6.3 µM, the GI50 (U-251; read-out: pGI50 (converted)) was 1.41 µM and the CC50 (U-251; [13]) was 43.7 µM. The TGI (U-251; read-out: pTGI (converted)) was 6.31 µM, the growth at 0.01 µM (RXF 393 [8]) was 91% and the growth at 0.01 µM (NCI-H522 [9]) was 50%. It also gave a GI50 (NCI-H460; read-out: GI50) of 0.797 µM, a CC50 (NCI-H460; [12]) of over 100 µM and a TGI (NCI-H460; read-out: TGI) of 34.8 µM. For the same molecule, the GI50 (NCI-H460; read-out: pGI50 (converted)) was 0.794 µM, the CC50 (NCI-H460; [13]) was over 100 µM and the TGI (NCI-H460; read-out: pTGI (converted)) was 3.55 µM. It also gave a growth at 100 µM (SW-620) of -19%, an IC50 (UO-31) of 1.41 µM and a GI50 (UO-31; read-out: GI50) of 1.41 µM. It also gave a CC50 (UO-31; [12]) of over 100 µM, a TGI (UO-31; read-out: TGI) of 15.5 µM and a GI50 (UO-31; read-out: pGI50 (converted)) of 1.12 µM. It also gave a CC50 (UO-31; [13]) of over 100 µM, a TGI (UO-31; read-out: pTGI (converted)) of 15.5 µM and a GI50 (786-0 [10]; read-out: GI50) of 2.24 µM. For the same molecule, the CC50 (786-0 [10]; [12]) was 41 µM, the TGI (786-0 [10]; read-out: TGI) was 10.1 µM and the GI50 (786-0 [10]; read-out: pGI50 (converted)) was 2.24 µM. For the same molecule, the CC50 (786-0 [10]; [13]) was 40.7 µM, the TGI (786-0 [10]; read-out: pTGI (converted)) was 10 µM and the growth at 0.1 µM (SF-539) was 93%. For the same molecule, the growth at 0.1 µM (ACHN) was 99%, the growth at 0.01 µM (COLO 205) was 106% and the growth at 1 µM (SK-OV-3 [11]) was 95%. The GI50 (SNB-75; read-out: GI50) was 0.772 µM, the CC50 (SNB-75; [12]) was over 100 µM and the TGI (SNB-75; read-out: TGI) was over 100 µM. For the same molecule, the GI50 (SNB-75; read-out: pGI50 (converted)) was 0.724 µM, the CC50 (SNB-75; [13]) was over 100 µM and the TGI (SNB-75; read-out: pTGI (converted)) was over 100 µM. The growth at 0.01 µM (SK-MEL-2) was 54%.
